Test results from ChEMBL document CHEMBL5108059, “Discovery of 2-Methyl-2-(4-(2-methyl-8-(1H-pyrrolo[2,3-b]pyridin-6-yl)-1H-naphtho[1,2-d]imidazol-1-yl)phenyl)propanenitrile as a Novel PI3K/mTOR Inhibitor with Enhanced Antitumor Efficacy In Vitro and In Vivo” (J Med Chem, 2022).

How the values were obtained:
[1] = target: Serine/threonine-protein kinase mTOR (Homo sapiens, UniProt P42345); assay: Inhibition of N-terminal FLAG-tagged recombinant human mTOR (1362 to end residue) using ULight-4EBP1 peptide as substrate incubated for 30 mins in presence of ATP by Lance ultra assay
[2] = target: Phosphatidylinositol 4,5-bisphosphate 3-kinase catalytic subunit alpha isoform (Homo sapiens, UniProt P42336); assay: Inhibition of PI3Kalpha (unknown origin) using PIP2 as substrate incubated for 1 hr in presence of ATP by Kinase Glo luminescence assay
[3] = target: T1, Phosphatidylinositol 4,5-bisphosphate 3-kinase catalytic subunit delta isoform (Homo sapiens, UniProt O00329); assay: Inhibition of PI3Kdelta (unknown origin) using PIP2 as substrate incubated for 2 hrs in presence of ATP by Kinase Glo luminescence assay
T1 sequence (O00329 whole entry): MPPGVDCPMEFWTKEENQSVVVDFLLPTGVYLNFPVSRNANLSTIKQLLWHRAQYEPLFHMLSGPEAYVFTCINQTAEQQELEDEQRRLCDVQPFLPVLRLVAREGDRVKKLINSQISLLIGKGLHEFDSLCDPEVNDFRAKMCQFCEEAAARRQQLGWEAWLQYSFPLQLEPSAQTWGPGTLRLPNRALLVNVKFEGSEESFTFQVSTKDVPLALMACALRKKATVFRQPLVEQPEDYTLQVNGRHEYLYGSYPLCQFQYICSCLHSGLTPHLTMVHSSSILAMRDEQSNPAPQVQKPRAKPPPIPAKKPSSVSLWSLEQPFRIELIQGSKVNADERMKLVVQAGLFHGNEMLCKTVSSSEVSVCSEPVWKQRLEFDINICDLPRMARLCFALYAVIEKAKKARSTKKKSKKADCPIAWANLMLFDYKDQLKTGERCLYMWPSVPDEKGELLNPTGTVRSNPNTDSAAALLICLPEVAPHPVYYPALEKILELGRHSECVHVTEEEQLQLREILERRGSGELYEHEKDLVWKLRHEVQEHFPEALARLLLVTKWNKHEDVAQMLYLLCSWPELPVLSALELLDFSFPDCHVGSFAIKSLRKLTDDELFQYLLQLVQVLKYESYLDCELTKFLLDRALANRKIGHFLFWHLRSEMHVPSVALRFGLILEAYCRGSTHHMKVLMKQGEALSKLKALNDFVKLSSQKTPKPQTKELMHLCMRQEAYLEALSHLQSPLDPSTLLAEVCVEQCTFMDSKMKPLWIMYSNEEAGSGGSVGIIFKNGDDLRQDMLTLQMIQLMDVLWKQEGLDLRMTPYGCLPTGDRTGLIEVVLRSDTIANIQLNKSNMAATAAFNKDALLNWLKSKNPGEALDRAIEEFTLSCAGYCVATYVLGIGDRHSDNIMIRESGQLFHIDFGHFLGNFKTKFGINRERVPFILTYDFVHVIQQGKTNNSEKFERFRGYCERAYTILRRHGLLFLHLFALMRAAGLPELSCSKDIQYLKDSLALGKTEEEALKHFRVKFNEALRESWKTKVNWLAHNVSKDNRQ

HT-29 = assay: Antiproliferative activity against human HT-29 cells with PIK3CA mutation assessed as inhibition of cell growth incubated for 48 to 72 hrs by MTT assay; type: functional, cell-based
HCT-15 = assay: Antiproliferative activity against human HCT-15 cells with PIK3CA mutation assessed as inhibition of cell growth incubated for 48 to 72 hrs by MTT assay; type: functional, cell-based
NCI-H3122 = assay: Antiproliferative activity against human NCI-H3122 cells assessed as inhibition of cell growth incubated for 48 to 72 hrs by MTT assay; type: functional, cell-based
HeLa [4] = assay: Antiproliferative activity against human HeLa cells assessed as inhibition of cell growth incubated for 48 to 72 hrs by MTT assay; type: functional, cell-based
SW-620 [5] = assay: Antiproliferative activity against human SW620 cells assessed as inhibition of cell growth incubated for 48 to 72 hrs by MTT assay; type: functional, cell-based
NCI-H446 = assay: Antiproliferative activity against PTEN-null human NCI-H446 cells assessed as inhibition of cell growth incubated for 48 to 72 hrs by MTT assay; type: functional, cell-based
HeLa [6] = assay: Antitumor activity against human HeLa cells xenografted in BALB/c nude mouse assessed as tumor growth inhibition at 30 mg/kg, IG administered daily for 30 days and measured every 2 days relative to control; type: functional; conditions: po, 720 h, time 30 day, read-out: TGI
SW-620 [7] = assay: Antitumor activity against human SW620 cells xenografted in BALB/c nude mouse assessed as tumor growth inhibition at 30 mg/kg, IG administered daily for 30 days and measured every 2 days relative to control; type: functional; conditions: SW-620, po, 720 h, time 30 day, read-out: TGI

Chain of Phosphatidylinositol 4,5-bisphosphate 3-kinase catalytic subunit alpha isoform (P42336 whole entry, canonical isoform): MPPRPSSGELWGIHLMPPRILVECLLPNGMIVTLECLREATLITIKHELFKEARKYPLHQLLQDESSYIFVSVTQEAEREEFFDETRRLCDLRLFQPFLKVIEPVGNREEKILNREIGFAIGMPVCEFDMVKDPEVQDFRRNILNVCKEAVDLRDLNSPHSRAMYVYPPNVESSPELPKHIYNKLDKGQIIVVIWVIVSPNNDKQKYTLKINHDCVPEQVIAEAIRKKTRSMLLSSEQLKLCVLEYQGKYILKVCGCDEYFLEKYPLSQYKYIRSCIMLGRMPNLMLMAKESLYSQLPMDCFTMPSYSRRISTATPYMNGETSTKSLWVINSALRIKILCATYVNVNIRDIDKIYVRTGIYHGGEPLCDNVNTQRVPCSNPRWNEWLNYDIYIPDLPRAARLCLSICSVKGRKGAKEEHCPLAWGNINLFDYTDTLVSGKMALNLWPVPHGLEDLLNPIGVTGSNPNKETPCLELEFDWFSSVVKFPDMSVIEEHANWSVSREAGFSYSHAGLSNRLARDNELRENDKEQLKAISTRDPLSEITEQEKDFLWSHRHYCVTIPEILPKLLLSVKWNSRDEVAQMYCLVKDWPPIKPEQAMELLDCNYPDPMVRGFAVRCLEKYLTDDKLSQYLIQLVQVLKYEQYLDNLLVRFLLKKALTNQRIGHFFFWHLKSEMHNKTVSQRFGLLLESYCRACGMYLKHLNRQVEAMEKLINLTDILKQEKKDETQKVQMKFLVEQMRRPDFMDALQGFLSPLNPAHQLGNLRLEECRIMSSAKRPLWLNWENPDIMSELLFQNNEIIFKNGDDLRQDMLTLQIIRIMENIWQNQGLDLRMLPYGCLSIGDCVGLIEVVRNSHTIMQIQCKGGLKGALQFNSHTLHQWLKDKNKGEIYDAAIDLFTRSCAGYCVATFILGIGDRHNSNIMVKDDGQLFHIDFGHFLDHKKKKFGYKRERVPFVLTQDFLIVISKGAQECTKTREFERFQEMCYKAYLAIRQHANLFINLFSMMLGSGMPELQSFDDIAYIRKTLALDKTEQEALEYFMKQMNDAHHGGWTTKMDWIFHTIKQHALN

## CNC(=O)c1ccc(-c2ccc3ncc4nc(C)n(-c5ccc(F)cc5)c4c3c2)cc1
[1]
  IC50: 157 nM
[2]
  IC50: 195 nM
[3]
  IC50: 133 nM
HT-29
  IC50: 9890 nM
HCT-15
  IC50: 12700 nM
NCI-H3122
  IC50: > 20000 nM
HeLa [4]
  IC50: > 20000 nM
SW-620 [5]
  IC50: > 20000 nM
NCI-H446
  IC50: > 20000 nM

## Cc1nc2cnc3ccc(-c4cnc5[nH]ccc5c4)cc3c2n1-c1ccc(C(F)(F)F)cc1
[1]
  IC50: 109 nM
[2]
  IC50: 47.1 nM
[3]
  IC50: 66.3 nM
HT-29
  IC50: 1250 nM
HCT-15
  IC50: 970 nM
NCI-H3122
  IC50: 1030 nM
HeLa [4]
  IC50: 1080 nM
SW-620 [5]
  IC50: 1160 nM
NCI-H446
  IC50: 1390 nM

## Cc1nc2cnc3ccc(-c4cnc5ccccc5c4)cc3c2n1-c1ccc(F)cc1
[1]
  IC50: 32.3 nM
[2]
  IC50: 33.1 nM
[3]
  IC50: 40.5 nM
HT-29
  IC50: 3250 nM
HCT-15
  IC50: 3090 nM
NCI-H3122
  IC50: 5080 nM
HeLa [4]
  IC50: 4310 nM
SW-620 [5]
  IC50: 2790 nM
NCI-H446
  IC50: 7130 nM

## Cc1nc2cnc3ccc(-c4cnc5[nH]ccc5c4)cc3c2n1-c1ccc(F)nc1
[1]
  IC50: 76.4 nM
[2]
  IC50: 41.4 nM
[3]
  IC50: 55.2 nM
HT-29
  IC50: 1160 nM
HCT-15
  IC50: 1290 nM
NCI-H3122
  IC50: 1310 nM
HeLa [4]
  IC50: 1920 nM
SW-620 [5]
  IC50: 970 nM
NCI-H446
  IC50: 2100 nM

## COc1ccc(-n2c(C)nc3cnc4ccc(-c5cnc6[nH]ccc6c5)cc4c32)cc1
[1]
  IC50: 67.2 nM
[2]
  IC50: 26.3 nM
[3]
  IC50: 17.2 nM
HT-29
  IC50: 820 nM
HCT-15
  IC50: 750 nM
NCI-H3122
  IC50: 1330 nM
HeLa [4]
  IC50: 960 nM
SW-620 [5]
  IC50: 1870 nM
NCI-H446
  IC50: 1510 nM

## Cc1nc2cnc3cc(F)c(-c4cnc5[nH]ccc5c4)cc3c2n1-c1ccc(C(C)(C)C#N)cc1
[1]
  IC50: 45.2 nM
[2]
  IC50: 19.3 nM
[3]
  IC50: 28.6 nM
HT-29
  IC50: 910 nM
HCT-15
  IC50: 830 nM
NCI-H3122
  IC50: 670 nM
HeLa [4]
  IC50: 510 nM
SW-620 [5]
  IC50: 1370 nM
NCI-H446
  IC50: 1650 nM

## Cn1c(=O)n(-c2ccc(C(C)(C)C#N)cc2)c2c3cc(-c4cnc5ccccc5c4)ccc3ncc21 [DACTOLISIB]
HT-29
  IC50: 1010 nM
HCT-15
  IC50: 910 nM
NCI-H3122
  IC50: 960 nM
HeLa [4]
  IC50: 1090 nM
SW-620 [5]
  IC50: 870 nM
NCI-H446
  IC50: 870 nM
HeLa [6]
  inhibition in vivo at 30 mg/kg: 53.3%
SW-620 [7]
  inhibition in vivo at 30 mg/kg: 51.7%

## Cc1nc2cnc3ccc(-c4ccc5[nH]ccc5c4)cc3c2n1-c1ccc(F)cc1
[1]
  IC50: 49.3 nM
[2]
  IC50: 29.8 nM
[3]
  IC50: 57.3 nM
HT-29
  IC50: 2720 nM
HCT-15
  IC50: 1920 nM
NCI-H3122
  IC50: 2310 nM
HeLa [4]
  IC50: 1790 nM
SW-620 [5]
  IC50: 2530 nM
NCI-H446
  IC50: 3080 nM

## Cc1nc2cnc3ccc(-c4cnc5[nH]ccc5c4)cc3c2n1[C@H](C)c1ccc(F)cc1
[1]
  IC50: 90.2 nM
[2]
  IC50: 151 nM
[3]
  IC50: 184 nM
HT-29
  IC50: 1380 nM
HCT-15
  IC50: 1170 nM
NCI-H3122
  IC50: 2050 nM
HeLa [4]
  IC50: 3940 nM
SW-620 [5]
  IC50: 1740 nM
NCI-H446
  IC50: 3970 nM
